Measurements from patent US7709471B2, “Compounds” (AstraZeneca AB, priority 2006, dated 2010).
pIC50: −log10 of the molar value.

The compounds below were run against recombinant Plk1 (Homo sapiens, UniProt P53350) (assay: In Vitro Plk1 Enzyme Assay (SPA, GST-Cdc25C phosphorylation)). Details: ATP 64 nM, 90 minutes, read-out: IC50 (Plk1 enzyme inhibition).
recombinant Plk1, sequence (P53350 whole entry): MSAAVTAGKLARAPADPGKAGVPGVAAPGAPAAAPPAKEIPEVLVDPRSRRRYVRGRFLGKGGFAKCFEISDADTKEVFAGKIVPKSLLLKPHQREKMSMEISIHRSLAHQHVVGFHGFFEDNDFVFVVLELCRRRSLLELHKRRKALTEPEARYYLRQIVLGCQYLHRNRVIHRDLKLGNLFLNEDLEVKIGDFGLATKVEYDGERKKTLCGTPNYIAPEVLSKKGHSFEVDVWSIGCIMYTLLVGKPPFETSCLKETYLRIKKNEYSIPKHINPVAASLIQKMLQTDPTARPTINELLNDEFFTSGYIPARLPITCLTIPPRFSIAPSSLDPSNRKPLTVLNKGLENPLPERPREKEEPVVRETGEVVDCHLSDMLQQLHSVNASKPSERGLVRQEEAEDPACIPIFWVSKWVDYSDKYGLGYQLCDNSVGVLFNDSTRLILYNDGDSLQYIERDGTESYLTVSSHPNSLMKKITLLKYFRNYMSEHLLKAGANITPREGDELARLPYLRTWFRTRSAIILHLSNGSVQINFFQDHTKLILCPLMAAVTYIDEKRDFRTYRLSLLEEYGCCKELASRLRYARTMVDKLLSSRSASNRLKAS
Type: biochemical
With “6-cyclopentyl-2-methyl-9-[(2,3,4-trimethoxyphenyl)amino]-2,6,8,10-tetrazabicyclo[5.4.0]undeca-8,10,12-trien-3-one [Example 130]” the pIC50 was greater than 6.00.
“6-cyclopentyl-2-methyl-9-[(2,4,6-trimethoxyphenyl)amino]-2,6,8,10-tetrazabicyclo[5.4.0]undeca-8,10,12-trien-3-one [Example 112]” was tested, and the pIC50 was greater than 6.00.
Compound “6-cyclopentyl-9-[[5-(3-dimethylaminopyrrolidin-1-yl)-2-methoxy-phenyl]amino]-2-methyl-2,6,8,10-tetrazabicyclo[5.4.0]undeca-8,10,12-trien-3-one [Example 182]” has a pIC50 greater than 6.00.
`CCCC1CN(C2CCCC2)c2nc(Nc3ccc(C(=O)NC4CCN(C)CC4)cc3OC)ncc2N(C)C1=O` (single isomer, unassigned) [Example 239] showed a pIC50 greater than 4.00.
Work on `COc1cc(C(=O)NC2CCN(C)CC2)ccc1Nc1ncc2c(n1)N(C1CCOCC1)CCC(=O)N2C` [Example 9, 3-Methoxy-4-[[6-methyl-2-(oxan-4-yl)-5-oxo-2,6,9,11-tetrazabicyclo[5.4.0]undeca-7,9,11-trien-10-yl]amino]-N-(1-methyl-4-piperidyl)benzamide] yielded a pIC50 greater than 6.52.
`COc1cc(C(=O)NCCN2CCCCC2)ccc1Nc1ncc2c(n1)N(C1CCCC1)CCC(=O)N2C` [Example 12, 4-[(6-cyclopentyl-2-methyl-3-oxo-2,6,8,10-tetrazabicyclo[5.4.0]undeca-8,10,12-trien-9-yl)amino]-3-methoxy-N-[2-(1-piperidyl)ethyl]benzamide] gave a pIC50 greater than 6.00.
`COC(=O)[C@H]1CC[C@@H](NC(=O)c2ccc(Nc3ncc4c(n3)N(C3CCCC3)CCC(=O)N4C)c(OC)c2)C1` [Example 65, Methyl(1S,3R)-3-[[4-[(6-cyclopentyl-2-methyl-3-oxo-2,6,8,10-tetrazabicyclo[5.4.0]undeca-8,10,12-trien-9-yl)amino]-3-methoxy-benzoyl]amino]cyclopentane-1-carboxylate] was tested, and the pIC50 was greater than 6.00.
`COc1cc(C(=O)N[C@@H]2CC[C@H](C(=O)O)C2)ccc1Nc1ncc2c(n1)N(C1CCCC1)CCC(=O)N2C` [Example 87, (1S,3R)-3-[[4-[(6-cyclopentyl-2-methyl-3-oxo-2,6,8,10-tetrazabicyclo[5.4.0]undeca-8,10,12-trien-9-yl)amino]-3-methoxy-benzoyl]amino]cyclopentane-1-carboxylic acid] was tested, and the pIC50 was greater than 6.52.
Work on `CC(C)NC(=O)c1ccc(Nc2ncc3c(n2)N(C2CCCC2)CCC(=O)N3C)cc1` [Example 100, 4-[(6-cyclopentyl-2-methyl-3-oxo-2,6,8,10-tetrazabicyclo[5.4.0]undeca-8,10,12-trien-9-yl)amino]-N-propan-2-yl-benzamide] yielded a pIC50 greater than 6.52.
Work on `CNC(=O)c1ccc(Nc2ncc3c(n2)N(C2CCCC2)CCC(=O)N3C)cc1` [Example 102, 4-[(6-cyclopentyl-2-methyl-3-oxo-2,6,8,10-tetrazabicyclo[5.4.0]undeca-8,10,12-trien-9-yl)amino]-N-methyl-benzamide] yielded a pIC50 greater than 6.52.
With `COc1cc(C(=O)O)ccc1Nc1ncc2c(n1)N(C1CCCC1)CCC(=O)N2C` [Example 111, 4-[(2-cyclopentyl-6-methyl-5-oxo-2,6,9,11-tetrazabicyclo[5.4.0]undeca-7,9,11-trien-10-yl)amino]-3-methoxy-benzoic acid] the pIC50 was greater than 6.52.
In the case of `CN1C(=O)CCN(C2CCCC2)c2nc(Nc3ccc(C#N)c(C(F)(F)F)c3)ncc21` [Example 116, 4-[(6-cyclopentyl-2-methyl-3-oxo-2,6,8,10-tetrazabicyclo[5.4.0]undeca-8,10,12-trien-9-yl)amino]-2-(trifluoromethyl)benzonitrile], the pIC50 was greater than 4.00.
With `CN1C(=O)CCN(C2CCCC2)c2nc(Nc3ccc(S(=O)(=O)NCCO)cc3)ncc21` [Example 117, 4-[(6-cyclopentyl-2-methyl-3-oxo-2,6,8,10-tetrazabicyclo[5.4.0]undeca-8,10,12-trien-9-yl)amino]-N-(2-hydroxyethyl)benzenesulfonamide] the pIC50 was greater than 4.00.
Compound `CN(C)CCOc1ccc(Nc2ncc3c(n2)N(C2CCCC2)CCC(=O)N3C)cc1` [Example 118, 6-cyclopentyl-9-[[4-(2-dimethylaminoethoxy)phenyl]amino]-2-methyl-2,6,8,10-tetrazabicyclo[5.4.0]undeca-8,10,12-trien-3-one] has a pIC50 greater than 4.00.

These compounds were tested on human colon tumour cell line HT29 (assay: Cellular Assay (phosphohistone H3 Ser10 mitotic marker, HT29)). Details: HT-29, 24 h, HT29 cells, read-out: IC50 (cellular assay, phosphohistone H3).
Type: cell-based
Experimental: Chromosome condensation in mitosis is accompanied by phosphorylation of histone H3 on serine 10.
After 24 hours, cells were fixed in 3.7% (v/v) formaldehyde then permeabilised and blocked for 10 minutes in 100 μl 0.5% (v/v) Triton X-100, 1% (w/v) bovine serum albumin (BSA) in phosphate buffered saline (PBS). […] The raw assay data were analysed by non-linear regression analysis and used to determine an IC50 value for each compound.
`COc1cc(C(=O)NCCN(C)C)ccc1Nc1ncc2c(n1)N(C1CCCCC1)CCC(=O)N2C` [Example 426, 4-[(2-cyclohexyl-6-methyl-5-oxo-2,6,9,11-tetrazabicyclo[5.4.0]undeca-7,9,11-trien-10-yl)amino]-N-(2-dimethylaminoethyl)-3-methoxy-benzamide] gave a pIC50 greater than 6.52.
`COc1cc(C(=O)NC2C[C@H]3CCC[C@@H](C2)N3C)c(F)cc1Nc1ncc2c(n1)N(C1CCCCC1)CCC(=O)N2C` (stereo partly drawn) [Example 427, 4-[(2-cyclohexyl-6-methyl-5-oxo-2,6,9,11-tetrazabicyclo[5.4.0]undeca-7,9,11-trien-10-yl)amino]-2-fluoro-5-methoxy-N-[(1R,5S)-9-methyl-9-azabicyclo[3.3.1]non-7-yl]benzamide] showed a pIC50 greater than 6.52.
Work on `CN1C(=O)C2(CC2)CN(C2CCCCC2)c2nc(Nc3ccc(C(=O)NC4C[C@H]5CCC[C@@H](C4)N5C)cc3F)ncc21` (stereo partly drawn) [Example 435, 4-(9′-cyclohexyl-5′-methyl-6′-oxo-5′,6′,8′,9′-tetrahydrospiro[cyclopropane-1,7′-pyrimido[5,4-b][1,4]diazepine]-2′-ylamino)-3-fluoro-N-[(1S,5R)-9-methyl-9-azabicyclo[3.3.1]non-7-yl]benzamide] yielded a pIC50 greater than 6.52.
`CN1CCC(NC(=O)c2cc(F)c(Nc3ncc4c(n3)N(C3CCCCC3)CC3(CC3)C(=O)N4C)cc2F)CC1` [Example 436, 4-(9′-cyclohexyl-5′-methyl-6′-oxo-5′,6′,8′,9′-tetrahydrospiro[cyclopropane-1,7′-pyrimido[5,4-b][1,4]diazepine]-2′-ylamino)-2,5-difluoro-N-(1-methyl-4-piperidyl)benzamide] gave a pIC50 greater than 6.52.
`CN1C(=O)C2(CC2)CN(C2CCCCC2)c2nc(Nc3cc(F)c(C(=O)NC4CCC(N(C)C)CC4)cc3Cl)ncc21` (stereo not shown) [Example 437, 5-chloro-4-(9′-cyclohexyl-5′-methyl-6′-oxo-5′,6′,8′,9′-tetrahydrospiro[cyclopropane-1,7′-pyrimido[5,4-b][1,4]diazepine]-2′-ylamino)-N-(4-dimethylaminocyclohexyl)-2-fluoro-benzamide] gave a pIC50 greater than 6.52.
Work on `COc1cc(C(=O)N[C@@H]2CCN(C)C2)c(F)cc1Nc1ncc2c(n1)N(C1CCCCC1)CC1(CC1)C(=O)N2C` [Example 438, 4-(9′-cyclohexyl-5′-methyl-6′-oxo-5′,6′,8′,9′-tetrahydrospiro[cyclopropane-1,7′-pyrimido[5,4-b][1,4]diazepine]-2′-ylamino)-2-fluoro-5-methoxy-N-[(3R)-1-methylpyrrolidin-3-yl]benzamide] yielded a pIC50 greater than 6.52.
Work on `COc1cc(C(=O)NCC(C)(C)CN2CCCC2)ccc1Nc1ncc2c(n1)N(C1CCCCC1)CC1(CC1)C(=O)N2C` [Example 440, 4-(9′-cyclohexyl-5′-methyl-6′-oxo-5′,6′,8′,9′-tetrahydrospiro[cyclopropane-1,7′-pyrimido[5,4-b][1,4]diazepine]-2′-ylamino)-N-(2,2-dimethyl-3-pyrrolidin-1-yl-propyl)-3-methoxy-benzamide] yielded a pIC50 greater than 6.52.
`CCN1CC[C@@H](NC(=O)c2ccc(Nc3ncc4c(n3)N(C3CCCCC3)CC3(CC3)C(=O)N4C)c(OC)c2)C1` [Example 441, 4-(9′-cyclohexyl-5′-methyl-6′-oxo-5′,6′,8′,9′-tetrahydrospiro[cyclopropane-1,7′-pyrimido[5,4-b][1,4]diazepine]-2′-ylamino)-N-[(3R)-1-ethylpyrrolidin-3-yl]-3-methoxy-benzamide] was tested, and the pIC50 was greater than 6.52.
For `COc1cc(C(=O)NC2C[C@H]3CCC[C@@H](C2)N3C)c(F)cc1Nc1ncc2c(n1)N(C1CCCCC1)CC1(CC1)C(=O)N2C` (stereo partly drawn) [Example 442, 4-(9′-cyclohexyl-5′-methyl-6′-oxo-5′,6′,8′,9′-tetrahydrospiro[cyclopropane-1,7′-pyrimido[5,4-b][1,4]diazepine]-2′-ylamino)-2-fluoro-5-methoxy-N-[(1S,5R)-9-methyl-9-azabicyclo[3.3.1]non-3-yl]benzamide], the pIC50 was greater than 6.52.
`CCN1CCC(NC(=O)c2cc(OC)c(Nc3ncc4c(n3)N(C3CCCCC3)CC3(CC3)C(=O)N4C)cc2F)CC1` [Example 443, 4-(9′-cyclohexyl-5′-methyl-6′-oxo-5′,6′,8′,9′-tetrahydrospiro[cyclopropane-1,7′-pyrimido[5,4-b][1,4]diazepine]-2′-ylamino)-N-(1-ethyl-4-piperidyl)-2-fluoro-5-methoxy-benzamide] showed a pIC50 greater than 6.52.
`COc1cc(C(=O)NCCN2CCCC2)c(F)cc1Nc1ncc2c(n1)N(C1CCCCC1)CC1(CC1)C(=O)N2C` [Example 444, 4-(9′-cyclohexyl-5′-methyl-6′-oxo-5′,6′,8′,9′-tetrahydrospiro[cyclopropane-1,7′-pyrimido[5,4-b][1,4]diazepine]-2′-ylamino)-2-fluoro-5-methoxy-N-(2-pyrrolidin-1-ylethyl)benzamide] gave a pIC50 greater than 6.52.
`COc1cc(C(=O)NCC2(CN3CCCC3)CC2)c(F)cc1Nc1ncc2c(n1)N(C1CCCCC1)CC1(CC1)C(=O)N2C` [Example 445, 4-(9′-cyclohexyl-5′-methyl-6′-oxo-5′,6′,8′,9′-tetrahydrospiro[cyclopropane-1,7′-pyrimido[5,4-b][1,4]diazepine]-2′-ylamino)-2-fluoro-5-methoxy-N-[[1-(pyrrolidin-1-ylmethyl)cyclopropyl]methyl]benzamide] gave a pIC50 greater than 6.52.
For `CN1CCC(NC(=O)c2ccc(Nc3ncc4c(n3)N(C3CCCCC3)CC3(CC3)C(=O)N4C)c(F)c2)CC1` [Example 446, 4-(9′-cyclohexyl-5′-methyl-6′-oxo-5′,6′,8′,9′-tetrahydrospiro[cyclopropane-1,7′-pyrimido[5,4-b][1,4]diazepine]-2′-ylamino)-3-fluoro-N-(1-methyl-4-piperidyl)benzamide], the pIC50 was greater than 6.52.
`COc1cc(C(=O)NC2CCCCN(C)C2)ccc1Nc1ncc2c(n1)N(C1CCCC1)CCC(=O)N2C` (stereo not shown) [Example 453, 4-[(2-cyclopentyl-6-methyl-5-oxo-2,6,9,11-tetrazabicyclo[5.4.0]undeca-7,9,11-trien-10-yl)amino]-3-methoxy-N-(1-methylazepan-3-yl)benzamide] showed a pIC50 greater than 6.52.
